Series [1] in a line: Solubility in phosphate buffer (0.16 M). As to conditions: aqueous buffer, thermodynamic from solid. Type of series: physicochemical. On the procedure: Excess amounts of each salt were added to the phosphate buffer (0.5 ml) individually. The mixtures were stirred and centrifuged at 6000 rpm for 6 min. The concentrations of each of the salts in their saturated solutions were analyzed by HPLC. The pH of the solutions was held constant throughout the experiment.

Series [2] is described as follows: In vitro skin permeation study, Franz-type diffusion cell. Type of series: in vitro ADME. As to conditions: male, Wistar, rat, read-out: Kp x10^6 (permeability coefficient) (converted). On the procedure: The in vitro skin permeation study was performed by using skin from the whole dorsal area of a male Wistar rat. […] For each salt and the parent drug, the cumulative amounts permeated through the skin were plotted against time. A steady-state flux (Jss) was obtained by dividing the slope of that graph by the surface area of the diffusion cell (4.906 cm^2).
All the reagents and solvents required for the syntheses were purified by general laboratory techniques before use. The purity of the compounds and completion of the reactions were monitored by thin layer chromatography (TLC) on silica gel plates (60 F254; Merck), visualized with ultraviolet light or iodine vapors. […] Melting points were determined using a Veego make silicon oil bath-type melting point apparatus and are uncorrected. The IR spectra were recorded using the KBr disc method in cm^−1 on a Bruker FTIR, Model 8300. The PMR spectra were recorded in CDCl3 on a Bruker 400 MHz spectrometer (chemical shifts in δ ppm, coupling constant J in Hz). λmax was determined on the Shimadzu 1800 UV spectrophotometer. The mass of the compounds was determined by LC-MS using electron impact as the source of ionization. DSC was performed on the Shimadzu DSC-60 model with the thermal analyser TA 60WS. The scanning electron microscope (SEM) model ESEM-EDAX XL-30, Philips (Netherlands) was used for the study of surface morphology. In vitro skin permeation studies were conducted using a Franz-type diffusion cell using skin from the whole dorsal area of a male Wistar rat (200 ± 10 g). Animal experiments were performed with the approval of the institutional animal ethical committee (MSU/PHARM/IAEC/2011/14) in accordance with Laboratory Animal Welfare guidelines.
In vitro skin permeation studies were performed by using skin from the whole dorsal area of a male Wistar rat in a Franz-type diffusion cell. Skin specimens were rehydrated before being mounted in the diffusion cell. The receptor medium (0.05 M phosphate buffer saline solution of pH 7.4) was stirred and kept at 37±1°C throughout the study.
The permeability coefficients (Kp) for the steady-state delivery were obtained by dividing the steady-state flux (Jss) by the solubilities of the compounds in the corresponding vehicle. The receiver medium (0.05 M phosphate buffer saline solution of pH 7.4) was stirred and kept at 37±1°C throughout the study. The compounds were applied as solutions in the phosphate buffer of pH 5.0 or 7.4. At specified time intervals, aliquots (0.5 ml) were withdrawn from the receiver compartment and replaced with fresh buffer. The drug concentrations were analyzed by HPLC.

The conditions of series [3]: cited from earlier work.

In brackets after ≈: the same amount, converted by molar mass. Read-outs that look alike come from different tables or passages of the source.

On to `O=C([O-])Cc1ccc(-c2ccccc2)cc1.[Na+]` [1a], for which the solubility in series [1] (pH 5.0, room temperature) was 14.2 ± 0.31 mM; in series [1] (pH 7.4, room temperature), 17.1 ± 0.21 mM. The Papp in series [2] (pH 5) is 0.0333 ×10⁻⁶ cm/s; in series [2] (pH 7.4), 0.0667 ×10⁻⁶ cm/s.
`NCCO.O=C(O)Cc1ccc(-c2ccccc2)cc1` [1b]: the solubility in series [1] (pH 5.0, room temperature) was determined as 28.96 ± 0.28 mM; in series [1] (pH 7.4, room temperature) it was 24.1 ± 0.34 mM. The Papp in series [2] (pH 5) was 0.0222 ×10⁻⁶ cm/s; in series [2] (pH 7.4) it was 0.178 ×10⁻⁶ cm/s.
For `O=C(O)Cc1ccc(-c2ccccc2)cc1` [compound 1, reference compound], the solubility in series [1] (pH 5.0, room temperature) was determined as 0.57 ± 0.14 mM (≈ 121 µg/mL); in series [1] (pH 7.4, room temperature), 54.08 ± 0.14 mM (≈ 11500 µg/mL). Moreover, the Papp was 0.208 ×10⁻⁶ cm/s in series [2] (pH 5) and 0.00833 ×10⁻⁶ cm/s in series [2] (pH 7.4). Further, the half-life in series [3] is > 10 h.

The solubility is the concentration that dissolves in the medium under given conditions. Read a high solubility as much dissolved substance. Usually half-life stands for the time in which the quantity being followed falls by half.

The values above are taken from article PMC4727820 (Scientia Pharmaceutica, 2014).
